How the values were obtained:
SIRT3 [1] = assay: qRT-PCR of Tnf, Il6 and Cxcl2 in Mabc-R-infected BMDMs with 3-TYP; format: cell-based, mouse; conditions: 3-TYP 50 μM pretreatment, Mabc-R MOI=3, 3 hours (FIG. 3B)
Description: (§1) BMDMs of B and PMs of C were prepared from SIRT3 WT and KO mice, and were infected with Mabc-R (MOI=3) in the presence or absence of 3-TYP (50 μM) for 3 hours. Quantitative real-time PCR analysis for Tnf, Il6, and Cxcl2 was performed. […] (Scale bar, 50 μm. *P<0.05, **P<0.01, ***P<0.001. UI, uninfected. One-way ANOVA (A to D). Data is representative of three independent experiments (D left), and values represent means (±SEM) from three or four independent experiments performed in triplicate (A to C, D right))
(§2) Primary mouse bone marrow-derived macrophages (BMDMs) were isolated and cultured as previously described. BMDMs were isolated and differentiated after culture for 4 to 5 days in medium containing 25 ng/mL macrophage colony-stimulating factor (R&D Systems, Minneapolis, MIN, USA). Peritoneal macrophages (PMs) were isolated 2 to 3 days after injection with 1 mL of PBS supplemented with 3% thioglycollate (Sigma-Aldrich, St. Louis, MO, USA). Prior to isolation, PMs in the mouse abdominal cavity were collected with pre-chilled PBS supplemented with 10% FBS. […]
(§3) RNA extraction and qPCR were performed as described in Reference. […] To analyze qPCR data, relative quantification was performed using the 2^ΔΔCt method using Gapdh as an internal control gene. Data was expressed as a relative fold change. […]

SIRT3 [2] = assay: qRT-PCR of Tnf, Il6 and Cxcl2 in Mabc-R-infected PMs with 3-TYP; format: cell-based, mouse; conditions: 3-TYP 50 μM pretreatment, Mabc-R MOI=3, 3 hours (FIG. 3C)
Description: as §1, §2, §3

TNF = TNF secretion in lung tissues of Mabc-R-infected mice (ELISA); format: in vivo, mouse; conditions: Mabc-R-infected mice treated with MIT-001
Description: The concentration of TNF in lung tissues was measured using a commercially available ELISA kit (BD Biosciences, 558534, San Jose, CA, USA). Experiments were performed according to the protocol provided by the manufacturer.
We next examined the in vivo effects of MIT-001 on pathological inflammatory responses during Mabc-R infection.

mitochondrial ROS = assay: MitoSOX Red staining of mitochondrial ROS in Mabc-R-infected BMDMs; format: cell-based, mouse; conditions: WT BMDMs, Mabc-R MOI=5, 2 hours, 20 μM, MitoSOX Red (FIG. 5A)
Description: (§4) Scale bar, 50 μm. (B to E) WT mice (n=5 each group) were left uninfected or infected intranasally with Mabc-R (1×10^7 CFU), prior to treatment with or without the compound represented by Chemical Formula 1 (30 mg/kg) and monitored at 10 days post-infection. […] The ratio of damaged mitochondria among total mitochondria was calculated quantitatively (scale bars, 200 nm). […] (*P<0.05, **P<0.01, ***P<0.001, n.s., not significant. One-way ANOVA (right) or non-parametric test (B, C, D right and E)). (Data represents three independent experiments (A left and D), and values represent means (±SEM) from three or four independent experiments performed in triplicate (A right, B, C, and E))
Mitochondrial ROS were measured as described previously in Reference. […] After 20 minutes, the cells were washed and measured using an immunofluorescence assay. […] The mean fluorescence intensity (MFI) level of mitochondrial ROS was calculated for each sample. Each experiment was performed in triplicate, and at least 200 cells per well were counted.
The mitochondrial ROS scavenger MIT-001 (previously, NecroX-7) removes mitochondrial ROS, calcium, and reactive nitrogen species (References [32 and 33]). […] The present inventors next determined whether inhibition of mitochondrial ROS generation enhanced antimicrobial effects in vivo. […]

[3] = system: inflammatory cytokines/chemokines (Tnf, Il1b, Il6, Cxcl2, Cxcl5); assay: qRT-PCR analysis for cytokines/chemokines in lung tissues of Mabc-R-infected mice; format: in vivo, mouse; conditions: WT mice, intranasal Mabc-R 1×10^7 CFU, 30 mg/kg, 10 dpi (FIG. 5C)
Description: as §4
(§5) RNA extraction and qPCR were performed as described in Reference. Briefly, total RNA from BMDMs or lung tissues was isolated using the TRIzol reagent (Thermo Fisher Scientific). cDNA synthesis was performed using Superscript II reverse transcriptase (Invitrogen, 18064). qPCR was performed using cDNA, primers, and SYBR Green PCR Kits (Qiagen, 204074) using a Real-time PCR Cycler Rotor-Gene Q 2plex system (Qiagen GmbH, 9001620, Hilden, Germany). The samples were amplified for 50 cycles as follows: 95° C. for 5 seconds and 60° C. for 10 seconds. To analyze qPCR data, relative quantification was performed using the 2^ΔΔCt method using Gapdh as an internal control gene. Data was expressed as a relative fold change. […]

Sirt3 mRNA = assay: qRT-PCR analysis for Sirt3 mRNA expression in lungs of Mabc-R-infected mice; format: in vivo, mouse; conditions: 30 mg/kg, 10 dpi (FIG. 5E)
Description: as §4, §5

Mabc-R = assay: Pulmonary CFU assay in mice infected intranasally with Mabc-R; format: in vivo, mouse; conditions: WT mice, intranasal Mabc-R 1×10^7 CFU, 30 mg/kg at 1, 3, 5, 7 and 9 dpi, sacrificed at 10 dpi (FIG. 5B)
[4] = system: mitochondria in alveolar cells of lung tissues; assay: TEM analysis of damaged mitochondria in lung tissues of Mabc-R-infected mice; format: in vivo, mouse; conditions: Mabc-R-infected mice vs vehicle control mice, 30 mg/kg, 10 dpi, TEM (FIG. 5D)
Description: as §4
SIRT3 WT and KO mouse lung tissues were fixed with 2.5% glutaraldehyde in a 0.1 M cacodylate buffer (pH 7.2) containing 0.1% CaCl2). After 3 hours, the cells were post-fixed with 1% OsO4 in a 0.1 M sodium cacodylate buffer containing 0.1% CaCl2) for 2 hours. The tissues were rinsed with cold distilled water and slowly dehydrated using an ethanol series and propylene oxide at 4° C. The tissues were embedded in Embed-812 and cured at 60° C. for 30 hours. Ultrathin sections (70 nm) were cut with a diamond knife and an ULTRACUT UC7 ultramicrotome (Leica) and mounted on formvar-coated copper grids. Sections were stained with 4% uranyl acetate for 7 minutes and lead citrate for 7 minutes. […]

SMILES	mRNA expression of proinflammatory cytokines (Tnf, Il6, Cxcl2) after infection with Mabc-R (SIRT3 [1]; SIRT3 KO BMDMs)	mRNA expression of Tnf, Il6, and Cxcl2 in response to Mabc-R (SIRT3 [1]; SIRT3 WT BMDMs)	mRNA expression of proinflammatory cytokines (Tnf, Il6, Cxcl2) after infection with Mabc-R (SIRT3 [2]; SIRT3 KO PMs)	mRNA expression of Tnf, Il6, and Cxcl2 in response to Mabc-R (SIRT3 [2]; SIRT3 WT PMs)	TNF secretion in lung tissues (TNF)	generation of mitochondrial ROS in response to Mabc-R infection (mitochondrial ROS)	mRNA expression of inflammatory cytokines/chemokines including Tnf, Il1b, Il6, Cxcl2 and Cxcl5 in lung tissues [3]	Sirt3 mRNA levels in mouse lungs (Sirt3 mRNA)	in vivo bacterial loads in the lungs (pulmonary CFU) (Mabc-R)	damaged mitochondria with disrupted cristae in alveolar cells of lung tissues [4]
c1cncc(-c2cn[nH]n2)c1 [3-TYP]	no significant effect	significantly increased	no significant effect	significantly increased						
O=S1(=O)CCN(Cc2cc(NC3CCOCC3)c3[nH]c(-c4ccccc4)cc3c2)CC1 [MIT-001, 5-[(1,1-dioxido-4-thiomorpholinyl)methyl]-2-phenyl-N-(tetrahydro-2H-pyran-4-yl)-1H-indol-7-amine]					significantly downregulated	remarkably suppressed	remarkably ameliorated	significantly recovered	significantly inhibited	considerably fewer damaged mitochondria

— patent publication US20240009202A1, “MITOCHONDRIA-TARGETED ANTIOXIDANT AS AGENT FOR TREATING PATHOLOGIC INFLAMMATION CAUSED BY MABC-R INFECTION” (MITOIMMUNE THERAPEUTICS INC., priority 2020, published 2024)
